Assay results reported in the supplement of paper PMC10307832.

How the values were obtained:
Test in all cases: relative viability (nuclei count vs DMSO), 5 days (fraction); higher = more cells survive
VE-821 + Bortezomib = compound: CS(=O)(=O)c1ccc(-c2cnc(N)c(C(=O)Nc3ccccc3)n2)cc1 [VE-821] + CC(C)C[C@H](NC(=O)[C@H](Cc1ccccc1)NC(=O)c1cnccn1)B(O)O [Bortezomib] (partner 0.002 µM)
Outline: (§1)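 Medians of duplicate plates are given as relative viability. That measure is the nuclei count in treated wells divided by the count in vehicle wells. Counts were taken on 4× images of lung cancer cell lines in 1536-well plates, 5 days after pin-tool dosing the day after seeding with one drug alone or a fixed anchor-drug dose plus five library-drug doses (not always all listed) in √10 steps.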

VE-821 + Palbociclib = compound: CS(=O)(=O)c1ccc(-c2cnc(N)c(C(=O)Nc3ccccc3)n2)cc1 [VE-821] + CC(=O)c1c(C)c2cnc(Nc3ccc(N4CCNCC4)cn3)nc2n(C2CCCC2)c1=O [Palbociclib] (partner 0.5 µM)
Outline: as §1

Vismodegib + Linsitinib = compound: CS(=O)(=O)c1ccc(C(=O)Nc2ccc(Cl)c(-c3ccccn3)c2)c(Cl)c1 [Vismodegib] + C[C@]1(O)C[C@@H](c2nc(-c3ccc4ccc(-c5ccccc5)nc4c3)c3c(N)nccn32)C1 [Linsitinib] (partner 1 µM)
Outline: as §1

Ruxolitinib + OSI-027 = compound: N#CC[C@H](C1CCCC1)n1cc(-c2ncnc3[nH]ccc23)cn1 [Ruxolitinib] + COc1cccc2cc(-c3nc([C@H]4CC[C@H](C(=O)O)CC4)n4ncnc(N)c34)[nH]c12 [OSI-027] (partner 0.5 µM)
Outline: as §1

| Cell Line | relative viability (VE-821 + Bortezomib; first compound 0.08 µM) | relative viability (VE-821 + Bortezomib; first compound 0.253 µM) | relative viability (VE-821 + Bortezomib; first compound 0.8 µM) | relative viability (VE-821 + Bortezomib; first compound 2.53 µM) | relative viability (VE-821 + Bortezomib; first compound 8 µM) | relative viability (VE-821 + Palbociclib; first compound 0.08 µM) | relative viability (VE-821 + Palbociclib; first compound 0.253 µM) | relative viability (VE-821 + Palbociclib; first compound 0.8 µM) | relative viability (VE-821 + Palbociclib; first compound 2.53 µM) | relative viability (VE-821 + Palbociclib; first compound 8 µM) | relative viability (Vismodegib + Linsitinib; first compound 0.08 µM) | relative viability (Vismodegib + Linsitinib; first compound 0.253 µM) | relative viability (Vismodegib + Linsitinib; first compound 0.8 µM) | relative viability (Vismodegib + Linsitinib; first compound 2.53 µM) | relative viability (Vismodegib + Linsitinib; first compound 8 µM) | relative viability (Ruxolitinib + OSI-027; first compound 0.08 µM) | relative viability (Ruxolitinib + OSI-027; first compound 0.253 µM) | relative viability (Ruxolitinib + OSI-027; first compound 0.8 µM) | relative viability (Ruxolitinib + OSI-027; first compound 2.53 µM) | relative viability (Ruxolitinib + OSI-027; first compound 8 µM) |
| --- | --- | --- | --- | --- | --- | --- | --- | --- | --- | --- | --- | --- | --- | --- | --- | --- | --- | --- | --- | --- |
| NCI-H1651 | 0.978 | 0.964 | 1.07 | 1.04 | 0.921 | 0.523 | 0.547 | 0.502 | 0.565 | 0.519 | 0.922 | 0.924 | 0.925 | 0.931 | 0.961 | 0.774 | 0.718 | 0.842 | 0.659 | 0.723 |
| NCI-H1666 | 0.942 | 0.864 | 0.755 | 0.736 | 0.549 | 0.635 | 0.685 | 0.644 | 0.713 | 0.621 | 0.877 | 0.871 | 0.69 | 0.773 | 0.967 | 0.877 | 0.842 | 0.864 | 0.782 | 0.968 |
| NCI-H1734 | 1.3 | 0.873 | 0.878 | 0.879 | 0.611 | 0.462 | 0.363 | 0.325 | 0.337 | 0.532 | 0.878 | 0.831 | 0.878 | 0.825 | 1.01 | 0.586 | 0.491 | 0.671 | 0.417 | 0.637 |
| NCI-H1755 | 1.01 | 0.95 | 0.941 | 0.898 | 0.79 | 0.429 | 0.437 | 0.423 | 0.363 | 0.424 | 0.926 | 0.969 | 1.02 | 1 | 0.999 | 0.748 | 0.732 | 0.683 | 0.606 | 0.566 |
| NCI-H1792 | 1.25 | 1.05 | 0.938 | 1.01 | 0.947 | 0.725 | 0.698 | 0.664 | 0.762 | 0.66 | 0.532 | 0.558 | 0.409 | 0.572 | 0.503 | 0.694 | 0.624 | 0.675 | 0.529 | 0.6 |
| NCI-H1915 | 0.967 | 0.958 | 1.03 | 0.999 | 0.962 | 0.558 | 0.532 | 0.54 | 0.547 | 0.452 | 1.11 | 1.15 | 1.06 | 1.1 | 1.1 | 0.622 | 0.619 | 0.663 | 0.463 | 0.464 |
| NCI-H1975 | 0.482 | 0.333 | 0.381 | 0.393 | 0.347 | 0.601 | 0.473 | 0.349 | 0.607 | 0.415 | 0.87 | 0.919 | 0.975 | 0.908 | 0.977 | 0.734 | 0.699 | 0.639 | 0.485 | 0.473 |
| NCI-H1993 | 1.25 | 0.869 | 0.967 | 1.16 | 0.812 | 0.673 | 0.619 | 0.561 | 0.635 | 0.537 | 0.737 | 0.816 | 0.669 | 0.677 | 0.775 | 0.535 | 0.549 | 0.538 | 0.584 | 0.541 |
| NCI-H2009 | 0.952 | 0.967 | 0.993 | 1.07 | 0.814 | 0.204 | 0.215 | 0.234 | 0.18 | 0.188 | 1.14 | 1.18 | 1.19 | 1.16 | 1.26 | 0.668 | 0.609 | 0.789 | 0.54 | 0.281 |
| NCI-H2023 | 1.08 | 0.902 | 0.763 | 0.549 | 0.218 | 0.452 | 0.346 | 0.317 | 0.297 | 0.124 | 0.596 | 0.662 | 0.675 | 0.579 | 0.618 | 0.455 | 0.298 | 0.556 | 0.343 | 0.411 |
| NCI-H2085 | 1.04 | 0.929 | 0.892 | 1.12 | 0.98 | 0.481 | 0.489 | 0.493 | – | 0.552 | 0.843 | 0.874 | 0.957 | 0.86 | 0.52 | 0.674 | 0.633 | 0.745 | 0.672 | 0.647 |
| NCI-H2087 | 0.996 | 1.07 | 1.16 | 0.77 | 0.937 | 0.263 | 0.192 | 0.292 | 0.259 | 0.297 | 1 | 0.916 | 0.97 | 0.934 | 0.896 | 0.488 | 0.413 | 0.585 | 0.478 | 0.642 |
| NCI-H2126 | 1.22 | 1.04 | 1.11 | 1.04 | 1.09 | 0.36 | 0.336 | 0.333 | 0.296 | 0.32 | 0.667 | 0.711 | 0.638 | 0.762 | 0.677 | 0.758 | 0.664 | 0.74 | 0.794 | 0.689 |
| NCI-H2228 | 1.23 | 0.931 | 1.2 | 0.824 | 0.635 | 0.885 | 0.762 | 0.981 | 1.03 | 0.547 | 0.972 | 0.855 | 0.835 | 0.467 | 0.763 | 0.629 | 0.419 | 0.743 | 0.446 | 0.289 |
| NCI-H2347 | 1.07 | 0.881 | 0.729 | 0.876 | 0.878 | 0.385 | 0.492 | 0.42 | 0.457 | 0.498 | 0.902 | 0.997 | 0.857 | 0.962 | 1.04 | 0.438 | 0.377 | 0.451 | 0.397 | 0.486 |
| NCI-H2405 | 1.1 | 1 | 0.974 | 1.02 | 0.947 | 0.533 | 0.496 | 0.541 | 0.558 | 0.408 | – | 0.859 | 0.806 | 0.776 | 1.07 | – | 0.503 | 0.684 | 0.623 | 0.468 |
